Among the data in patent US9556202B2, “Sulfonamide derivatives and methods of use thereof for improving the pharmacokinetics of a drug” (MERCK SHARP & DOHME CORP., priority 2012, dated 2017) are IC50 values, retold here.

The target in one assay is T1, CYP1A2 (Homo sapiens, UniProt P05177).
T1 construct: 0.1 mg/mL protein human liver microsomes (BD Gentest); tissue BD Gentest; host or cells: human liver microsomes
T1 sequence (P05177 1-516): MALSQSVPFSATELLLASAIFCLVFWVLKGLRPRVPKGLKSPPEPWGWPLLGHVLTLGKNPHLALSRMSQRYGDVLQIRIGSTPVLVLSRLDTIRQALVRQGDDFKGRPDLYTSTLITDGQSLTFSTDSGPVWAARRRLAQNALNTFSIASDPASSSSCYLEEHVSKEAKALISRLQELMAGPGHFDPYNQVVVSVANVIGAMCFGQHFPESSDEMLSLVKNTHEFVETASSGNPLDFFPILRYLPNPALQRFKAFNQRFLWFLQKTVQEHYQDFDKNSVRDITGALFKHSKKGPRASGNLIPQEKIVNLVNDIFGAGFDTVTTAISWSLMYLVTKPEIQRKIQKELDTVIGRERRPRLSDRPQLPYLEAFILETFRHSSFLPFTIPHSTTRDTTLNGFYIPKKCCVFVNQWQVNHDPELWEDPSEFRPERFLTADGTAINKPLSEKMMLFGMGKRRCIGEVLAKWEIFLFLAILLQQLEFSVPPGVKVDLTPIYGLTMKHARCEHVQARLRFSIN
In words: Cocktail CYP inhibition assay in human liver microsomes, phenacetin O-deethylation. The assay is classed as in vitro ADME. Particulars: human liver microsomes 0.1 mg/mL, 10 μM phenacetin, 10 min 37° C.; test conc. up to 10 μM; unit inferred. How it is done: (§1) Determination of IC50 in a Cocktail Assay for CYPs 1A2, 2C9, 2C19, 2D6 and 3A4
(§2) This assay was performed in a standard 96-well plate design. IC50 values were calculated from the percent inhibition observed for each test compound at 6 concentrations (for example, 0.0032, 0.016, 0.08, 0.4, 2 and 10 μM). The incubation substrate mix contains 10 μM phenacetin (1A2), 5 μM diclofenac (2C9), 30 μM mephenytoin (2C19), 5 μM dextromethorphan (2D6) and 2 μM midazolam (3A4), 0.1 mg/mL protein human liver microsomes (BD Gentest), 1 mM NAPDH, 3.3 mM MgCl2 and 100 mM potassium phosphate buffer (pH 7.4). The production of the metabolite of each probe substrate was determined after incubation for 10 min at 37° C. Quantitation of the metabolite peak area ratio against an internal standard (tolbutamide) was determined by LC/MS/MS analysis following acetonitrile treatment of the incubations.
(§3) Samples were analyzed in the MRM mode with a SCIEX API-4000 mass spectrometer (Applied Biosystems, Foster City, Calif.), with a Shimadzu LC-20 AD pump (Shimadzu corporation, Kyoto, JP) and a CTC PAL autosampler (Agilent Technologies, Switzerland). A Phenomenex, Luna, 5 μm, 100 A, 2.00×30 mm HPLC column was used for the separation. The mobile phases were: (A) 0.1% formic acid in water and (B) 0.1% formic acid in acetonitrile. The binary gradient was as follows.
(§4) The peak area ratio of the analyte to the internal standard was used to quantify the metabolite. The values of peak area ratios in the presence of test compound were compared to those of maximum or minimum controls and were expressed as % inhibition by interpolating between the maximum and minimum peak area ratios. Incubations with no inhibitor were defined as the maxima.
(§5) The following equation was used to calculate the % inhibition: [1−[(X−Low control)/(High control−Low control)]]*100
(§6) For the IC50 calculation, SigmaPlot was used to plot the mean % inhibition versus the test compound concentrations and for non-linear regression analysis of the data. […]

A further assay deals with T2, CYP2C9 (Homo sapiens, UniProt P11712).
T2 construct: 0.1 mg/mL protein human liver microsomes (BD Gentest); tissue BD Gentest; host or cells: human liver microsomes
Briefly: Cocktail CYP inhibition assay in human liver microsomes, diclofenac 4'-hydroxylation. Type of assay: in vitro ADME. The note with it: human liver microsomes 0.1 mg/mL, 5 μM diclofenac, 10 min 37° C.; unit inferred. How it is done:
as §1, §2, §3, §4, §5, §6

Another assay has as its target T3, human CYP11B2 (Homo sapiens, UniProt P19099).
T3 construct: expressed in transfected cells
T3 sequence (P19099 25-503): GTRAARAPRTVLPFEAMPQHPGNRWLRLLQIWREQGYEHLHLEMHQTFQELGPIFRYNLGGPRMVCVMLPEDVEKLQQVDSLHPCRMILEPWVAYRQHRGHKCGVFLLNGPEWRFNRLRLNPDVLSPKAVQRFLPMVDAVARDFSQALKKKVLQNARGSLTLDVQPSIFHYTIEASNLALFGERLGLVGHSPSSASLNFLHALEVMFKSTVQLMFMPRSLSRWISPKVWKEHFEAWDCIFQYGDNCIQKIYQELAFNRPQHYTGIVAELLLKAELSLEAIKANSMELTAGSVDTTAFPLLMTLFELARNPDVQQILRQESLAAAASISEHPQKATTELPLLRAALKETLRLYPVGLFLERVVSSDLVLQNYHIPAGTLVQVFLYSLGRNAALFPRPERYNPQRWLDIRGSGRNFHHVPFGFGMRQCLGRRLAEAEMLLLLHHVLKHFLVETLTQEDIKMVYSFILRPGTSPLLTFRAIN
In words: IC50 vs CYP11B2 by aldosterone synthesis in V79 cells (HTRF). The assay is classed as cell-based. Particulars: V79 cells expressing human CYP11B2, 750 nM DOC, test conc. 0.5-10000 nM, unit inferred. How it is done:
Determination of IC50 Vs CYP11B1/CYP11B2 by Measurement of Cortisol/Aldosterone Synthesis
This assay was performed in a standard 384-well plate design using cultured V79 cells stably expressing human CYP11B1 or human CYP11B2. Test compounds at 10 concentrations (for example, 10000, 3333.3, 1111.1, 370.4, 123.5, 41.2, 13.7, 4.6, 1.5 and 0.5 nM) were added in 384-well plate after the cell-seeding procedure. The incubation substrate contains 1500 nM RSS for CYP11B1 assay/750 nM DOC for CYP11B2 assay. The Cortisol/Aldosterone production of cell culture supernatant was determined by Cortisol/Aldosterone HTRF kit after for about 15 hours incubation at RT (protect from light). IC50 values were calculated from the percent inhibition observed for each test compound at 10 concentrations.
The assay plate was read using Envision (Perkin Elmer, Waltham, Mass.) at 665 nm and 590 nm (using Filter Barcode of 217#, 205#; Mirror Barcode of 446#).
Data are analyzed using Assay Data Analyzer. All ratio data (665 nm/590 nm) are back calculated according to the standard curve, resulting in Cortisol/Aldosterone concentrations. IC50 values are reported as the Inflection Point (IP) of a four parameter fit of the titration data.
The following equation was used to calculate the % inhibition: % Activity=100×{1−(Sample_back calculated Cortisol/Aldosterone concentration−LC_back calculated Cortisol/Aldosterone concentration)/(HC_back calculated Cortisol/Aldosterone concentration−LC_back calculated Cortisol/Aldosterone concentration)} Curve Fitting: Four Parameter Logistic: […]

T2 sequence (P11712 whole entry): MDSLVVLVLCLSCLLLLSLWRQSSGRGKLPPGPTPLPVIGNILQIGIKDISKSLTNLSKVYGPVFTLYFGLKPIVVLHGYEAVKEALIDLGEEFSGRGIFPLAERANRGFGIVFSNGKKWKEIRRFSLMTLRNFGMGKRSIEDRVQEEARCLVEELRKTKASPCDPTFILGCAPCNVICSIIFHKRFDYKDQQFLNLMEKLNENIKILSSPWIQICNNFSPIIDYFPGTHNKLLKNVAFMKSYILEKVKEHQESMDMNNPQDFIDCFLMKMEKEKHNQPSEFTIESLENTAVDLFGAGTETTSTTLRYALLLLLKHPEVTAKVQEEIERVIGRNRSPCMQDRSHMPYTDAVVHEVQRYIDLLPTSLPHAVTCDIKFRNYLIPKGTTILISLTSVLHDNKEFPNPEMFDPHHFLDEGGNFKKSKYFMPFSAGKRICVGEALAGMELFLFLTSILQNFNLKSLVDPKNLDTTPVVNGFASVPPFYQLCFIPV

As to `COCC(c1cncn1[C@H](C)c1ccc(F)cc1)N1CCN(S(=O)(=O)c2cnc(N3CCN(C)CC3)s2)CC1` (single isomer, unassigned) [Compound 35], the 50% inhibitory concentration (IC50) against CYP1A2 was greater than 10 µM; on CYP2C9, greater than 10 µM; at human CYP11B2 it was 5 µM.

Take `COCCC(c1cncn1[C@H](C)c1ccc(F)cc1)N1CCN(S(=O)(=O)c2cnc(N3CCN(C)CC3)s2)CC1` (single isomer, unassigned) [Compound 36]: the IC50 against CYP1A2 is greater than 10 µM; at CYP2C9, greater than 10 µM; against human CYP11B2, 3.83 µM.

Turning to `C[C@H](c1ccc(F)cc1)n1cncc1C1CCCC2CN(S(=O)(=O)c3cnc(Nc4ccccn4)s3)CCN21` (single isomer, unassigned) [Compound 38], the IC50 was greater than 10 µM against CYP1A2, 1.22 µM on CYP2C9 and 1.31 µM against human CYP11B2.
